# In patent publication US9624214B2, “Amino-substituted imidazo[1,2-a]pyridinecarboxamides and their use” (BAYER PHARMA AKTIENGESELLSCHAFT, priority 2012, dated 2017):
# Molecular target: T1, recombinant guanylate cyclase reporter cell line (Rattus norvegicus, UniProt P19686+P20595)
# T1 construct: expressed in transfected cells
# T1 sequence (P20595 1-619): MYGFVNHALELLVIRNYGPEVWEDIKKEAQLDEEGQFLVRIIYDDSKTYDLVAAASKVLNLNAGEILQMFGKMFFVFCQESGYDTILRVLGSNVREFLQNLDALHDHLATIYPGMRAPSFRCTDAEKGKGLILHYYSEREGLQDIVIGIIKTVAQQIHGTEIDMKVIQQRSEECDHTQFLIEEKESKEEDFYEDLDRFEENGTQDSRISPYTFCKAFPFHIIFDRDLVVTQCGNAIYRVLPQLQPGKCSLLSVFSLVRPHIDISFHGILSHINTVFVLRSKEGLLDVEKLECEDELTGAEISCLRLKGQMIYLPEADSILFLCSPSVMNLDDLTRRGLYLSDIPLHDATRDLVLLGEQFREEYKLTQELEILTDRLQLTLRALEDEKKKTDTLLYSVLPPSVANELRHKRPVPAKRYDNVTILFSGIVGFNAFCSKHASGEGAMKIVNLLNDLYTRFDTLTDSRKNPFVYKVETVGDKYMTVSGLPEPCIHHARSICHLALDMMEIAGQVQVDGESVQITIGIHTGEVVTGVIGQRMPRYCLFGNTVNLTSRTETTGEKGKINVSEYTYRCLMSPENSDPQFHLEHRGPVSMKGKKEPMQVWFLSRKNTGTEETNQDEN
# T1 sequence (P19686 1-690): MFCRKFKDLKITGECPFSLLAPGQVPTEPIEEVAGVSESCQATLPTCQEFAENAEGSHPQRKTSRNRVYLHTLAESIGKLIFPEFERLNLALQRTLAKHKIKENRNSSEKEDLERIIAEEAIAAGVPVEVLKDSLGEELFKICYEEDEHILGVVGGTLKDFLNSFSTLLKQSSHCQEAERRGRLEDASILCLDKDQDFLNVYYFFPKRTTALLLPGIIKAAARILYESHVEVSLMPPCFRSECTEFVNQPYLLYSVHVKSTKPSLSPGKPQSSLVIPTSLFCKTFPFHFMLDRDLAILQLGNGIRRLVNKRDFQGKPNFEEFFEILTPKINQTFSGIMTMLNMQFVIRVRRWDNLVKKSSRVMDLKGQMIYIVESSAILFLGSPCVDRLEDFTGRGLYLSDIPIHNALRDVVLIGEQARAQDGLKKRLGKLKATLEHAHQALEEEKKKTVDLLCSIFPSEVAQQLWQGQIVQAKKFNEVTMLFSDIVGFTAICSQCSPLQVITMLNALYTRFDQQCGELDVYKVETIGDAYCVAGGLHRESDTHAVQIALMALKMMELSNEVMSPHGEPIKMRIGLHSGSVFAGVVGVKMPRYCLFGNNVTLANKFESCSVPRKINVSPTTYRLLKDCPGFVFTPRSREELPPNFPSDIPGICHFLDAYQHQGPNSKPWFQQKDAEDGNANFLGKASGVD
# Assay: B-2. Action on recombinant guanylate cyclase reporter cell line
# Format: cell-based
# Settings: MEC = minimal effective concentration; in some cases mean values from individual determinations
# In short: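 Read-out: MEC (minimal effective concentration) in cells. Reporter line carries recombinant sGC. Some values are averages of single runs.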
row,MEC [µM],Compound
1,1.00,"Cc1cc(OCc2c(F)cccc2F)c2nc(C)c(C(=O)NCC(N)C#N)n2c1 (single isomer, unassigned; enantiomer a) [Example 401, ent-N-(2-amino-2-cyanoethyl)-8-[(2,6-difluorobenzyl)oxy]-2,6-dimethylimidazo[1,2-a]pyridine-3-carboxamide (Enantiomer A)]"
2,3.00,"Cc1nc2c(OCc3c(F)cccc3F)cccn2c1C(=O)NCC(C(C)C)N(C)C (single isomer, unassigned; ent-8) [Example 189, ent-8-[(2,6-Difluorobenzyl)oxy]-N-[2-(dimethylamino)-3-methylbutyl]-2-methylimidazo[1,2-a]-pyridine-3-carboxamide]"
3,0.30,"CCCC(C)(N)CNC(=O)c1c(C)nc2c(OCc3c(F)c(F)cc(F)c3F)cc(C)cn12 (racemic) [Example 311, rac-N-(2-amino-2-methylpentyl)-2,6-dimethyl-8-[(2,3,5,6-tetrafluorobenzyl)oxy]imidazo[1,2-a]pyridine-3-carboxamide]"
4,0.03,"CCCC(C)(N)CNC(=O)c1c(C)nc2c(OCc3c(F)cccc3F)cc(C)cn12 (single isomer, unassigned) [Example 234, ent-N-(2-Amino-2-methylpentyl)-8-[(2,6-difluorobenzyl)oxy]-2,6-dimethylimidazo[1,2-a]pyridine-3-carboxamide]"
5,0.30,"Cc1cc(OCc2c(F)cccc2F)c2nc(C)c(C(=O)NCCNC(C)(C)C)n2c1 [Example 255, N-[2-(tert-Butylamino)ethyl]-8-[(2,6-difluorobenzyl)oxy]-2,6-dimethylimidazo[1,2-a]pyridine-3-carboxamide]"
6,0.30,"Cc1cc(OCc2c(F)cccc2F)c2nc(C)c(C(=O)NCC3CCc4ccccc4N3)n2c1 (racemic) [Example 235, rac-8-[(2,6-Difluorobenzyl)oxy]-2,6-dimethyl-N-(1,2,3,4-tetrahydroquinolin-2-ylmethyl)imidazo-[1,2-a]pyridine-3-carboxamide]"
7,1.00,"Cc1nc2c(OCc3c(F)cccc3F)cccn2c1C(=O)NCC1CCc2ccccc2N1 (racemic) [Example 250, rac-8-[(2,6-Difluorobenzyl)oxy]-2-methyl-N-(1,2,3,4-tetrahydroquinolin-2-ylmethyl)imidazo[1,2-a]pyridine-3-carboxamide]"

# Second part, the molecule before the results:
row,Compound,MEC [µM]
1,"Cc1cc(OCc2c(F)cccc2F)c2nc(C)c(C(=O)NCC3(N)CC3)n2c1 [Example 40, N-[(1-aminocyclopropyl)methyl]-8-[(2,6-difluorobenzyl)oxy]-2,6-dimethylimidazo[1,2-a]-pyridine-3-carboxamide]",0.10
2,"Cc1nc2c(OCc3c(F)cccc3F)cccn2c1C(=O)NC1CCN(Cc2ccccc2)C1 (racemic) [Example 85, rac-N-(1-benzylpyrrolidin-3-yl)-8-[(2,6-difluoro-benzyl)oxy]-2-methylimidazo[1,2-a]-pyridine-3-carboxamide]",1.00
3,"Cc1nc2c(OCc3c(F)cccc3F)cccn2c1C(=O)NC(C)(C)C(C)(C)N [Example 141, N-(3-Amino-2,3-dimethylbutan-2-yl)-8-[(2,6-difluorobenzyl)oxy]-2-methylimidazo[1,2-a]pyridine-3-carboxamide]",3.00
4,"Cc1nc2c(OCc3c(F)cccc3F)cccn2c1C(=O)NC1CNc2ccccc2C1 (racemic) [Example 75, rac-8-[(2,6-Difluorobenzyl)oxy]-2-methyl-N-(1,2,3,4-tetrahydroquinolin-3-yl)imidazo[1,2-a]-pyridine-3-carboxamide]",1.00
5,"Cc1nc2c(OCc3c(F)cccc3F)cccn2c1C(=O)NC1CCNc2ccccc21 (single isomer, unassigned; ent-8) [Example 52, ent-8-[(2,6-Difluorobenzyl)oxy]-2-methyl-N-(1,2,3,4-tetrahydroquinolin-4-yl)imidazo[1,2-a]-pyridine-3-carboxamide]",0.03
